Laboratory results from article PMC2752665 (Nature chemical biology, 2009).

How the values were obtained:
[1] = target: T1, KSHV Pr (Human herpesvirus 8 type P, UniProt Q2HRB6, S204G); assay type: biochemical, human Kaposi's sarcoma-associated herpesvirus (KSHV); conditions: substitution from meta position to para or ortho
[2] = target: wt KSHV Pr (Human herpesvirus 8 type P, UniProt Q2HRB6, S204G); assay type: binding; conditions: 23 μM 13C-Met wt KSHV Pr, 1 molar equivalence inhibitor (24 μM)
[3] = target: KSHV Pr dimer (Human herpesvirus 8 type P, UniProt Q2HRB6, S204G); assay type: binding
[4] = Dynamic light scattering for particle formation; assay type: physicochemical
[5] = target: T1, KSHV Pr; experiment: Inhibition kinetics; assay type: biochemical, human Kaposi's sarcoma-associated herpesvirus (KSHV)
[6] = tested on: p53-MDM2; conditions: cited from earlier work
[7] = 1 -10 μM concentration range of DD2

## O=C(O)c1ccc(NC(=O)c2ccc(CC3CCCCC3)cc2)c(Cc2ccccc2)c1 [Compound 4]
[1]
  effect of moving the cyclohexylmethyl side chain on inhibition (SAR): diminished inhibition

## O=C(O)c1ccc(NC(=O)c2cccc(CC3CCCCC3)n2)c(Cc2ccccc2)c1 [Compound 2]
[2]
  M197-dimer peak in 1H-13C HSQC: broadens beyond detection
[3]; 5 μM wt KSHV Pr pre-incubated with 30 μM compound
  elution profile of KSHV Pr (dimerization state): eluted predominantly as a monomer
[4]
  particle formation by dynamic light scattering: did not show evidence of particle formation
[5]; [7]
  decrease in Vmax: 3 fold
  increase in KM: 2.5 fold
[5]; Lineweaver–Burk analysis
  type of inhibition: mixed-type inhibitor

## O=C(O)c1ccc(NC(=O)c2cccc(CC3CCCCC3)c2)c(Cc2ccccc2)c1 [Compound 1]
[6]
  inhibition of the interaction of p53-MDM2: not found to inhibit
[3]; data not shown
  results in size exclusion chromatography and HSQC experiments compared with DD2: produced similar results

## O=C(O)c1ccc(NC(=O)c2ccccc2CC2CCCCC2)c(Cc2ccccc2)c1 [Compound 5]
[1]
  effect of moving the cyclohexylmethyl side chain on inhibition (SAR): diminished inhibition
